In ChEMBL document CHEMBL2074380, “Pyronaridine, a novel modulator of P-glycoprotein-mediated multidrug resistance in tumor cells in vitro and in vivo” (Biochem Biophys Res Commun, 2004):

Assays:
Assay type in all cases: functional, cell-based
[1] = biological target: T1, ATP-dependent translocase ABCB1 (Homo sapiens, UniProt P08183); test: TP_TRANSPORTER: drug resistance (doxorubicin) in MCF-7/ADR cells; conditions: nci/adr-res
[2] = biological target: T1, ATP-dependent translocase ABCB1; test: TP_TRANSPORTER: drug resistance (doxorubicin) in K562/A02 cells
[3] = biological target: T1, ATP-dependent translocase ABCB1; test: TP_TRANSPORTER: increase in Rhodamine 123 intracellular accumulation in K562/A02 cells

T1 sequence (P08183 whole entry): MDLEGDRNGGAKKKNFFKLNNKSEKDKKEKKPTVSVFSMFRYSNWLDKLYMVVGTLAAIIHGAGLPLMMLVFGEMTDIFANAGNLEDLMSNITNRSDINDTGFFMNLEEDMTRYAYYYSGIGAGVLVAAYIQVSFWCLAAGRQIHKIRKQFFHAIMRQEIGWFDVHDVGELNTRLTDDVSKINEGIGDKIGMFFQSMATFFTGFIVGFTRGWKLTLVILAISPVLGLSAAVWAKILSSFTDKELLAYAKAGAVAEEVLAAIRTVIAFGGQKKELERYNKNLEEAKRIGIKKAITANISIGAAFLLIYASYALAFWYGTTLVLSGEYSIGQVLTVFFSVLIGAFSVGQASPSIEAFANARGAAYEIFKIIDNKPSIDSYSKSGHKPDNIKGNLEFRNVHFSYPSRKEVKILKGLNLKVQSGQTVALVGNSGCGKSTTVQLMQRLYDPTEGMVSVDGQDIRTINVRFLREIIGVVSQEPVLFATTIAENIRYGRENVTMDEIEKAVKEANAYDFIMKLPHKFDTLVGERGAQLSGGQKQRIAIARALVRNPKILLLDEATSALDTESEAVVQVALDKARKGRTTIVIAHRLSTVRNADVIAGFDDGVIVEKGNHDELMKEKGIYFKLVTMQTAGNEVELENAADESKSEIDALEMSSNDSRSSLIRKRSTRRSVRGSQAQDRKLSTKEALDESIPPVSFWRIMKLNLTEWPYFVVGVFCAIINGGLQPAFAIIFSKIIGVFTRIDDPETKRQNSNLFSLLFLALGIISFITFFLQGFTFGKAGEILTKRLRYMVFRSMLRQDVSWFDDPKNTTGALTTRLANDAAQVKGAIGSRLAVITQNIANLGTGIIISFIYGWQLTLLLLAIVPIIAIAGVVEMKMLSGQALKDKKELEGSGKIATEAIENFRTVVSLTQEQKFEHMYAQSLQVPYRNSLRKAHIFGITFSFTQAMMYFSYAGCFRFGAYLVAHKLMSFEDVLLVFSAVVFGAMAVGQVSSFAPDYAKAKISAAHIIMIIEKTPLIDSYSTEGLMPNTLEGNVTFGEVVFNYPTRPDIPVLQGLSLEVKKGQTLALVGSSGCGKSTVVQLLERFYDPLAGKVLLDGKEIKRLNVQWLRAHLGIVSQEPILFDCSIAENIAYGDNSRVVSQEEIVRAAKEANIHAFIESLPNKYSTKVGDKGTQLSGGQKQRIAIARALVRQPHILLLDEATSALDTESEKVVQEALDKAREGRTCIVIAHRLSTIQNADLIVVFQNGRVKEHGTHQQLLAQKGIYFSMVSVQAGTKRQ

Activity [1]: inhibitor [+]
Activity [2]: inhibitor [+]
Activity [3]: inhibitor [+]
Compound: COc1ccc2nc3cc(Cl)ccc3c(Nc3cc(CN4CCCC4)c(O)c(CN4CCCC4)c3)c2n1 [PYRONARIDINE]
